According to patent publication EP4721732A1, “PHARMACEUTICAL COMPOSITION CONTAINING CRISDESALAZINE WITH IMPROVED STABILITY AND DISSOLUTION RATE” (priority 2023, dated 2024):
Converted amounts (≈) assume the structure as drawn. Read-outs that look alike come from different tables or passages of the source.

How the values were obtained:
[1] = Compatibility evaluation of crisdesalazine with excipients; assay type: physicochemical
Text: One embodiment of the present invention provides a pharmaceutical composition substantially free of lactose. The inventors conducted "compatibility" evaluation experiments between crisdesalazine and various excipients.
In other words, the long-term stability of crisdesalazine and lactose was difficult to predict based solely on short-term compatibility evaluation tests.
However, when compressed to a target hardness of 7-9 kPa, the target hardness was not achieved. The appearance of the tablet changed to a bluish gray color during the short period between mixing and compression.

[2] = pH-dependent equilibrium solubility; assay type: physicochemical; conditions: for Equilibrium Solubility: BLOD = below limit of detection; for solubility thermodynamic at 12 h / solubility thermodynamic at 24 h: purified water, thermodynamic from solid
Description: First, the inventors of the present invention measured the pH-dependent equilibrium solubility of crisdesalazine (2-hydroxy-5-[2-(4-trifluoromethylphenyl)ethylamino]benzoic acid), and the results of the solubility at 12 hours and 24 hours were as shown in Table 1 and Figure 1 below. […]

For `O=C(O)c1cc(NCCc2ccc(C(F)(F)F)cc2)ccc1O` [crisdesalazine, 2-hydroxy-5-[2-(4-trifluoromethylphenyl)ethylamino]benzoic acid], the compatibility with lactose ([1]; 13-week compatibility study, only minor powder coagulation, minimal changes in impurities) was “judged to be compatible”, the compatibility with excipients ([1]; with calcium phosphate dibasic, hydroxypropyl methylcellulose (HPMC), meglumine, magnesium oxide (MgO)) was “poor compatibility” and the “Equilibrium Solubility” value ([2]; pH 3, 12 hours) was “BLOD”. The “Equilibrium Solubility” value ([2]; pH 3, 24 hours) was “BLOD”, the “Equilibrium Solubility” value ([2]; pH 4, 12 hours) was “BLOD” and the solubility thermodynamic at 12 h ([2]; pH 1, simulated gastric fluid, pH 1, 12 hours, read-out: Equilibrium Solubility) was 16.4 µg/mL (≈ 50.4 µM). The solubility thermodynamic at 24 h ([2]; pH 1, simulated gastric fluid, pH 1, 24 hours, read-out: Equilibrium Solubility) was 15.7 µg/mL (≈ 48.3 µM), the solubility thermodynamic at 12 h ([2]; pH 2, simulated gastric fluid, pH 2, 12 hours, read-out: Equilibrium Solubility) was 2.6 µg/mL (≈ 7.99 µM) and the solubility thermodynamic at 24 h ([2]; pH 2, simulated gastric fluid, pH 2, 24 hours, read-out: Equilibrium Solubility) was 1.7 µg/mL (≈ 5.23 µM). It also gave a solubility thermodynamic at 24 h ([2]; pH 4, aqueous buffer, pH 4, 24 hours, read-out: Equilibrium Solubility) of 2.2 µg/mL (≈ 6.76 µM), a solubility thermodynamic at 12 h ([2]; pH 5, aqueous buffer, pH 5, 12 hours, read-out: Equilibrium Solubility) of 0.7 µg/mL (≈ 2.15 µM) and a solubility thermodynamic at 24 h ([2]; pH 5, aqueous buffer, pH 5, 24 hours, read-out: Equilibrium Solubility) of 5.9 µg/mL (≈ 18.1 µM). The solubility thermodynamic at 12 h ([2]; pH 6, aqueous buffer, pH 6, 12 hours, read-out: Equilibrium Solubility) was 6.4 µg/mL (≈ 19.7 µM), the solubility thermodynamic at 24 h ([2]; pH 6, aqueous buffer, pH 6, 24 hours, read-out: Equilibrium Solubility) was 11.5 µg/mL (≈ 35.4 µM) and the solubility thermodynamic at 12 h ([2]; pH 7, aqueous buffer, pH 7, 12 hours, read-out: Equilibrium Solubility) was 38.2 µg/mL (≈ 117 µM). The solubility thermodynamic at 24 h ([2]; pH 7, aqueous buffer, pH 7, 24 hours, read-out: Equilibrium Solubility) was 39.7 µg/mL (≈ 122 µM), the solubility thermodynamic at 12 h ([2]; pH 7, aqueous buffer, pH 7 or lower, 12 hours, read-out: equilibrium solubility in purified water) was at most 38.2 µg/mL and the solubility thermodynamic at 24 h ([2]; pH 7, aqueous buffer, pH 7 or lower, 24 hours, read-out: equilibrium solubility in purified water) was at most 39.7 µg/mL. For the same compound, the solubility thermodynamic at 12 h ([2]; pH 8, aqueous buffer, pH 8, 12 hours, read-out: Equilibrium Solubility) was 254 µg/mL (≈ 781 µM), the solubility thermodynamic at 24 h ([2]; pH 8, aqueous buffer, pH 8, 24 hours, read-out: Equilibrium Solubility) was 252 µg/mL (≈ 773 µM) and the solubility thermodynamic at 12 h ([2]; pH 9, aqueous buffer, pH 9, 12 hours, read-out: Equilibrium Solubility) was 1210 µg/mL (≈ 3720 µM). The solubility thermodynamic at 24 h ([2]; pH 9, aqueous buffer, pH 9, 24 hours, read-out: Equilibrium Solubility) was 1230 µg/mL (≈ 3780 µM), the solubility thermodynamic at 12 h ([2]; pH 10, aqueous buffer, pH 10, 12 hours, read-out: Equilibrium Solubility) was 685 µg/mL (≈ 2110 µM) and the solubility thermodynamic at 24 h ([2]; pH 10, aqueous buffer, pH 10, 24 hours, read-out: Equilibrium Solubility) was 678 µg/mL (≈ 2080 µM). It also gave a solubility thermodynamic at 12 h ([2]; pH 11, aqueous buffer, pH 11, 12 hours, read-out: Equilibrium Solubility) of 662 µg/mL (≈ 2040 µM), a solubility thermodynamic at 24 h ([2]; pH 11, aqueous buffer, pH 11, 24 hours, read-out: Equilibrium Solubility) of 718 µg/mL (≈ 2210 µM) and a solubility thermodynamic at 12 h ([2]; pH 12, aqueous buffer, pH 12, 12 hours, read-out: Equilibrium Solubility) of 1220 µg/mL (≈ 3770 µM). The solubility thermodynamic at 24 h ([2]; pH 12, aqueous buffer, pH 12, 24 hours, read-out: Equilibrium Solubility) was 1220 µg/mL (≈ 3760 µM).
